Earlier results as cited in patent US20090280177A1, “Pharmaceutical preparation for treating fibromyalgia” (priority 2006, published 2009).

Columns and labels:
[1] = system: peripheral blood-adhesive cells from chronic rheumatoid arthritis patients
[2] = system: T cell-independent antigen
[3] = system: T cell-dependent antigen; conditions: dose-dependent manner
[4] = system: T cells; conditions: dose-dependent manner

O=C(O)c1cc(/N=N/c2ccc(S(=O)(=O)Nc3ccccn3)cc2)ccc1O [salazosulfapyridine, 2-Hydroroxy-5-[4-(pyridine-2-ylsulfamoyl)phenylazo] benzoic acid]
production of IL-1 and IL-6 [1]: suppress
immune response to a T cell-independent antigen [2]: hardly suppressed
immune response to a T cell-dependent antigen [3]: suppressed
IL-2 production [4]: suppress
